Laboratory results: US8618138B2, “Indole amide derivatives and related compounds for use in the treatment of neurodegenerative diseases” (Katholieke Universiteit Leuven, K.U. Leuven R&D, priority 2009, dated 2013)

System: M17-TAU P301L cells
Assay: TAU cytotoxicity assay: LDH leakage of retinoic acid incubated M17-TAU P301L cells
Assay type: cell-based, human
Conditions: Homo sapiens, 168 h, reduction of LDH activity of retinoic acid incubated M17-TAU P301L cells, 7 days
Excerpt: A TAU expression plasmid was constructed by sub-cloning the cDNA of human TAU-P301 L (encoding for TAU with proline 301 substituted by a leucine residue) into mammalian expression vector pcDNA3.1 resulting in plasmid pcDNA3.1-TAU P301L. Plasmids pcDNA3.1 and pcDNA3.1-TAU P301L were transfected to human neuroblastoma cells ([…]; ATCC No. CRL-2267) and independent clonal lines with the plasmids stably integrated into the genome were selected. […] Expression of the TAU P301L genes in the cell lines was confirmed by Western analysis.
In degenerated or dead cells lactate dehydrogenase (LDH) is leaked out of the cells into the extracellular environment due to a loss of plasma-membrane integrity. This principle was used to determine cytotoxicity by quantifying the level of leaked LDH into the growth medium.
The detailed method for determining TAU cytotoxicity was as follows: From appropriate precultures of M17-3.1 and M17-TAU(P301L) cells were seeded at 2500 cells/cm2 in Optimem Reduced Serum without phenol red (Gibco, Cat. 31985-047) supplemented with 1% fetal calf serum, 1 mM sodium pyruvate, 1× non-essential amino acids, 500 μg/ml G418 0.5× antibiotic/antimycotic. After 3 h of incubation at 37° C./5% CO2 1 volume of Optimem Reduced Serum (same as described above; except without fetal calf serum) supplemented with 2.5 μM retinoic acid (RA) was added. The cells were further incubated for 7 days. Subsequently, LDH activity was determined using Promega Cytotox 96 Non-Radioactive cytotoxicity assay, (Cat. G1780) according the supplier's instructions.
The M17-TAU P301L cell line made it possible to assess the ability of novel compounds to counteract TAU cytotoxicity. […] These measurements were used to calculate EC50 values of table 2.
Exemplary compounds of the present invention are shown in table 2, with their chemical name and their EC50 value (expressed in nM) as determined from example 196 in the Tau-induced toxicity experiment.

Compound	EC50 [nM]
Cn1nc(C(=O)NCCc2c[nH]c3ccc(Cl)cc23)cc1-c1ccccc1 [Example D26, N-(2-(5-chloro-1H-indol-3-yl)ethyl)-1-methyl-5-phenyl-1H-pyrazole-3-carboxamide]	38
Cc1ccc(-c2nc(C)c(C(=O)NCCc3c[nH]c4ccc(F)cc34)s2)cc1 [Example D37, N-(2-(5-fluoro-1H-indol-3-yl)ethyl)-4-methyl-2-p-tolylthiazole-5-carboxamide]	61
O=C(NCCc1c[nH]c2ccc(Cl)cc12)c1noc(Cc2ccc(Cl)c(F)c2)n1 [Example D175, N-(2-(5-chloro-1H-indol-3-yl)ethyl)-5-(4-chloro-3-fluorobenzyl)-1,2,4-oxadiazole-3-carboxamide]	94
O=C(NCCc1c[nH]c2ccc(Cl)cc12)C1=NOC(c2ccccc2)C1 (centres unmarked) [Example D55, N-(2-(5-chloro-1H-indol-3-yl)ethyl)-5-phenyl-4,5-dihydroisoxazole-3-carboxamide]	189
O=C(c1cc(Cc2cc(F)ccc2F)on1)N1CCC(c2c[nH]c3ccccc23)CC1 [Example D138, (4-(1H-indol-3-yl)piperidin-1-yl)(5-(2,5-difluorobenzyl)isoxazol-3-yl)methanone]	418
O=C(NCCc1c[nH]c2ccc(Cl)cc12)c1cc(Cc2ccc(F)c(F)c2)on1 [Example D129, N-(2-(5-chloro-1H-indol-3-yl)ethyl)-5-(3,4-difluorobenzyl)isoxazole-3-carboxamide]	8
O=C(NCCc1c[nH]c2ccc(Cl)cc12)C1CCN(c2ccc(Cl)c(F)c2)C1=O (centres unmarked) [Example D142, N-(2-(5-chloro-1H-indol-3-yl)ethyl)-1-(4-chloro-3-fluorophenyl)-2-oxopyrrolidine-3-carboxamide]	561
COc1ccc(N2CCC(C(=O)NCCc3c[nH]c4ccc(Cl)cc34)C2=O)cc1F (centres unmarked) [Example D147, N-(2-(5-chloro-1H-indol-3-yl)ethyl)-1-(3-fluoro-4-methoxyphenyl)-2-oxopyrrolidine-3-carboxamide]	379
O=C(NCCc1c[nH]c2ccc(Cl)cc12)c1noc(Cc2ccc(Cl)cc2)n1 [Example D172, N-(2-(5-chloro-1H-indol-3-yl)ethyl)-5-(4-chlorobenzyl)-1,2,4-oxadiazole-3-carboxamide]	34
O=C(NCCc1c[nH]c2ccc(Cl)cc12)c1cc(Cc2cccc(F)c2F)on1 [Example D130, N-(2-(5-chloro-1H-indol-3-yl)ethyl)-5-(2,3-difluorobenzyl)isoxazole-3-carboxamide]	20
O=C(NCCc1c[nH]c2ccc(Cl)cc12)c1cc(Cc2ccc(C(F)(F)F)cc2)on1 [Example D9, N-(2-(5-chloro-1H-indol-3-yl)ethyl)-5-(4-(trifluoromethyl)benzyl)isoxazole-3-carboxamide]	16
O=C(NCCc1c[nH]c2ccc(Cl)cc12)c1cc(C(O)c2ccccc2)on1 (centres unmarked) [Example D195, N-(2-(5-chloro-1H-indol-3-yl)ethyl)-5-(hydroxy(phenyl)methyl)isoxazole-3-carboxamide]	101
O=C(c1cc(Cc2cc(F)ccc2F)on1)N1CCC(c2c[nH]c3ccc(Cl)cc23)CC1 [Example D139, (4-(5-chloro-1H-indol-3-yl)piperidin-1-yl)(5-(2,5-difluorobenzyl)isoxazol-3-yl)methanone]	186
O=C(NCCc1c[nH]c2ccc(Cl)cc12)c1noc(Cc2cccc(C(F)(F)F)c2)n1 [Example D186, N-(2-(5-chloro-1H-indol-3-yl)ethyl)-5-(3-(trifluoromethyl)benzyl)-1,2,4-oxadiazole-3-carboxamide]	119
O=C(NCCc1c[nH]c2ccc(Cl)cc12)c1noc(Cc2ccc(C(F)(F)F)cc2)n1 [Example D187, N-(2-(5-chloro-1H-indol-3-yl)ethyl)-5-(4-(trifluoromethyl)benzyl)-1,2,4-oxadiazole-3-carboxamide]	32
Cc1ccccc1Cc1nc(C(=O)NCCc2c[nH]c3ccc(Cl)cc23)no1 [Example D192, N-(2-(5-chloro-1H-indol-3-yl)ethyl)-5-(2-methylbenzyl)-1,2,4-oxadiazole-3-carboxamide]	53
COc1ccc2[nH]cc(CCNC(=O)c3sc(-c4ccc(C)cc4)nc3C)c2c1 [Example D32, N-(2-(5-methoxy-1H-indol-3-yl)ethyl)-4-methyl-2-p-tolylthiazole-5-carboxamide]	50
O=C(NCCc1c[nH]c2ccc(F)cc12)c1cc(Cc2cccc(F)c2)on1 [Example D28, N-(2-(5-fluoro-1H-indol-3-yl)ethyl)-5-(3-fluorobenzyl)isoxazole-3-carboxamide]	41

Compound	EC50 [nM]
Cc1nc(NCCc2ccccc2)sc1C(=O)NCCc1c[nH]c2ccccc12 [Example D39, N-(2-(1H-indol-3-yl)ethyl)-4-methyl-2-(phenethylamino)thiazole-5-carboxamide]	87
CC(C)c1ccc(N2CCC(C(=O)NCCc3c[nH]c4ccc(Cl)cc34)C2=O)cc1 (centres unmarked) [Example D71, N-(2-(5-chloro-1H-indol-3-yl)ethyl)-1-(4-isopropylphenyl)-2-oxopyrrolidine-3-carboxamide]	413
Cn1ccc(C(=O)NCCc2c[nH]c3ccc(Cl)cc23)n1 [Example D118, N-(2-(5-chloro-1H-indol-3-yl)ethyl)-1-methyl-1H-pyrazole-3-carboxamide]	332
O=C(NCCc1c[nH]c2ccc(Cl)cc12)c1cc(Cc2ccncc2)on1 [Example D41, N-(2-(5-chloro-1H-indol-3-yl)ethyl)-5-(pyridin-4-ylmethyl)isoxazole-3-carboxamide]	91
O=C(CCc1c[nH]c2ccc(Cl)cc12)N1CCN(Cc2ccccc2)C1 [Example D126, 1-(3-benzylimidazolidin-1-yl)-3-(5-chloro-1H-indol-3-yl)propan-1-one]	357
O=C(NCCc1c[nH]c2ncc(Cl)cc12)c1cc(Cc2cc(F)ccc2F)on1 [Example D128, N-(2-(5-chloro-1H-pyrrolo[2,3-b]pyridin-3-yl)ethyl)-5-(2,5-difluorobenzyl)isoxazole-3-carboxamide]	105
O=C(NCCc1c[nH]c2ccc(Cl)cc12)c1noc(Cc2ccsc2)n1 [Example D193, N-(2-(5-chloro-1H-indol-3-yl)ethyl)-5-(thiophen-3-ylmethyl)-1,2,4-oxadiazole-3-carboxamide]	49
COc1ccc(OC)c(Cc2nc(C(=O)NCCc3c[nH]c4ccc(Cl)cc34)no2)c1 [Example D179, N-(2-(5-chloro-1H-indol-3-yl)ethyl)-5-(2,5-dimethoxybenzyl)-1,2,4-oxadiazole-3-carboxamide]	51
O=C(NCCc1c[nH]c2ccc(Cl)cc12)c1cc(-c2ccccc2)on1 [Example D36, N-(2-(5-chloro-1H-indol-3-yl)ethyl)-5-phenylisoxazole-3-carboxamide]	61
CN(C)c1cc(C(=O)NCCc2c[nH]c3ccc(Cl)cc23)no1 [Example D124, N-(2-(5-chloro-1H-indol-3-yl)ethyl)-5-(dimethylamino)isoxazole-3-carboxamide]	5290
O=C(NCCc1c[nH]c2ccc(Cl)cc12)c1noc(Cc2cccc(F)c2)n1 [Example D169, N-(2-(5-chloro-1H-indol-3-yl)ethyl)-5-(3-fluorobenzyl)-1,2,4-oxadiazole-3-carboxamide]	26
O=C(NCCc1c[nH]c2ccc(Cl)cc12)c1cc(C(=O)c2cc(F)ccc2F)on1 [Example D194, N-(2-(5-chloro-1H-indol-3-yl)ethyl)-5-(2,5-difluorobenzoyl)isoxazole-3-carboxamide]	113
COc1ccccc1Cc1cc(C(=O)NCCc2c[nH]c3ccc(Cl)cc23)no1 [Example D8, N-(2-(5-chloro-1H-indol-3-yl)ethyl)-5-(2-methoxybenzyl)isoxazole-3-carboxamide]	16
O=C(NCCc1c[nH]c2ccc(Cl)cc12)N1CCN(Cc2ccccc2)C1 [Example D69, 3-benzyl-N-(2-(5-chloro-1H-indol-3-yl)ethyl)imidazolidine-1-carboxamide]	357
O=C(NCCc1c[nH]c2ccc(Cl)cc12)c1noc(Cc2cc(F)cc(F)c2)n1 [Example D182, N-(2-(5-chloro-1H-indol-3-yl)ethyl)-5-(3,5-difluorobenzyl)-1,2,4-oxadiazole-3-carboxamide]	11
Cc1oc(-c2ccccc2)nc1C(=O)NCCc1c[nH]c2ccc(Cl)cc12 [Example D62, N-(2-(5-chloro-1H-indol-3-yl)ethyl)-5-methyl-2-phenyloxazole-4-carboxamide]	237
O=C(NCCc1c[nH]c2ccc(-c3ccccc3)cc12)c1cc(Cc2cc(F)ccc2F)on1 [Example D140, 5-(2,5-difluorobenzyl)-N-(2-(5-phenyl-1H-indol-3-yl)ethyl)isoxazole-3-carboxamide]	316
